Article PMC6651024, “LIR Motif-Containing Hyperdisulfide β-Ginkgotide is Cytoprotective, Adaptogenic, and Scaffold-Ready” (Molecules, 2019)
“Also recorded” adds a separate entry of the source. Where a SMILES comes first, the peptide text is derived from it. The star is where a group is joined. Cam = NC(=O)C*

Assays:
[1] = tested on: H9c2 cells; test: LDH release cytotoxicity assay, H9c2; type: cell-based, rat; conditions: H9c2, 10 µM peptide, 48 h, 37 °C; LDH kit, 450 nm; triplicates
Source text: (§1) In addition, β-gB1 is non-toxic to Vero and BHK (baby hamster kidney) cell lines based on an MTT assay. […] LDH is a cytoplasmic enzyme which is rapidly released into the cell culture medium upon plasma membrane damage and is widely used as a marker for cytotoxicity. Thus, an LDH-release assay measures the level of plasma membrane damage to a cell population.
(§2) Rat cardio-myoblast cells (H9c2) and […] neuron-like SH-SY5Y cells were purchased from ATCC and maintained in DMEM (Dulbecco’s modified eagle medium) medium supplemented with 10% fetal bovine serum (FBS), 10,000 U/mL of penicillin, and 10,000 µg/mL of streptomycin at 37 °C, 5% CO2.
(§3) An LDH release assay was performed using the CytoSelect™ LDH cytotoxicity assay kit (CBA-241, Cell Biolabs, Inc., San Diego, CA, USA). In brief, cells were cultured in DMEM with or without 10 µM of β-gB1 and S-alkylated β-gB1 (β-gB1Alk) for 48 h at 37 °C and 5% CO2. PBS was used for the vehicle control experiment. The culture medium was transferred and mixed with the LDH assay reagent in a ratio of 9:1. The reaction mixture was incubated at 37 °C for 2 h, and colorimetric quantification was performed using a 450 nm wavelength. The assay was performed in experimental triplicates, and statistical calculations and bar graphs were done using GraphPad Prism software (Version 6.01). […]

[2] = molecular target: T1, pepsin (Sus scrofa, UniProt P00791); test: Enzymatic (proteolytic) stability against pepsin; type: in vitro ADME; conditions: 37 °C, MALDI-TOF MS and C18 RP-HPLC
T1 construct: purchased Sigma-Aldrich
T1 sequence (P00791 60-385): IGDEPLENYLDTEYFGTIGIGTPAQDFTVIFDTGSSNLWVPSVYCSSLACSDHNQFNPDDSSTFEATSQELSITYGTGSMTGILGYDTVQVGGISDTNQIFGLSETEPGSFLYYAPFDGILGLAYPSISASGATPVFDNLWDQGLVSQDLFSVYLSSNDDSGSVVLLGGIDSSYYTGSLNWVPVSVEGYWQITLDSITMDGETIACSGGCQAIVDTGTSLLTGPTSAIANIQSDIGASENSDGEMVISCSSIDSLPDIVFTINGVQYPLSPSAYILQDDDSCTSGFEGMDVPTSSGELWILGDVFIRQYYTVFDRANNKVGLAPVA
Description: (§4) To assess the proteolytic stability of β-gB1, it was treated with trypsin or pepsin for 6 h. […] Similarly, the S-alkylated β-gB1 was degraded completely by pepsin within 30 min. […] This is in agreement with other plant CRPs that contain a compact structure, whose proteolytic stability was examined up to six hours treatment.
(§5) The folded β-gB1 (28 µg) was added to 100 μL of a 0.1 M ammonium bicarbonate buffer (pH 7.8) containing 800 U/mL of trypsin or 4 mg/mL of pepsin and incubated at 37 °C for 6 h. At each time-point (0, 1, 2, 4, and 6 h), 20 µL of the treated sample was aliquoted and quenched by adding 5 µL of 1 M hydrochloric acid or 0.8 μL of 1 M sodium hydroxide. The reduced β-gB1 was alkylated with iodoacetamide (S-alkylated β-gB1) and used as a control in this study. The reaction mixture was analyzed by MALDI-TOF MS and C18-reversed-phase HPLC to determine its stability.

[3] = tested on: SH-SY5Y cells; test: MTT-based cell proliferation assay under normoxia, SH-SY5Y; set-up: species or system human; conditions: 10 µM peptide, 48 h, triplicates
Source text: as §1, §2
(§6) Cells were cultured in DMEM with or without β-gB1/S-alkylated β-gB1 (β-gB1Alk) for 48 h under normoxia, hypoxia, and hypoxia-reoxygenation conditions. Phosphate-buffered saline (PBS) was used as a vehicle control. After 48 h, MTT (3-(4,5-dimethylthiazol-2-yl)-2,5-diphenyltetrazolium bromide) reagent was added with a final concentration of 0.5 mg/mL, and it was incubated at 37 °C for 2 h. The culture medium was then aspirated, and purple formazan crystals were dissolved in DMSO for colorimetric quantification at 570 nm using a microplate reader with a reference wavelength of 630 nm. […]

[4] = tested on: H9c2 cells; test: MTT-based cell proliferation assay under normoxia, H9c2; set-up: species or system rat; conditions: H9c2, 10 µM peptide, 48 h, triplicates
Source text: as §1, §2, §6

[5] = tested on: SH-SY5Y cells; test: LDH release cytotoxicity assay, SH-SY5Y; type: cell-based, mouse; conditions: 10 µM peptide, 48 h, 37 °C, LDH kit, 450 nm, triplicates
Source text: as §1, §2, §3

[6] = tested on: trypsin; test: Enzymatic (proteolytic) stability against trypsin; type: in vitro ADME; conditions: trypsin, 37 °C, five minute treatment; MALDI-TOF MS and C18 RP-HPLC
Description: as §4, §5

CC[C@H](C)[C@H](NC(=O)[C@H](CSCC(N)=O)NC(=O)CNC(=O)[C@H](Cc1ccc(O)cc1)NC(=O)[C@H](CCC(=O)O)NC(=O)[C@H](CC(=O)O)NC(=O)[C@H](CC(C)C)NC(=O)[C@H](Cc1ccc(O)cc1)NC(=O)[C@H](CSCC(N)=O)NC(=O)[C@H](CSCC(N)=O)NC(=O)[C@H](CCCNC(=N)N)NC(=O)[C@H](CCCCN)NC(=O)[C@H](CSCC(N)=O)NC(=O)CNC(=O)[C@@H](NC(=O)[C@H](CCC(=O)O)NC(=O)[C@@H](N)Cc1ccc(O)cc1)[C@@H](C)O)C(=O)N[C@@H](CCCNC(=N)N)C(=O)N[C@@H](CSCC(N)=O)C(=O)N[C@@H](CSCC(N)=O)C(=O)O [S-alkylated β-gB1, reference compound] (H-YETGC(Cam)KRC(Cam)C(Cam)YLDEYGC(Cam)IRC(Cam)C(Cam)-OH)
Cytotoxicity / cell-membrane damage by LDH release [1]: no significant cytotoxicity or cell-membrane damaging effects
Time to complete degradation by pepsin [2]: ≤ 30 min
Cell viability (growth or death) under normoxia [3]: No change in cell viability; also recorded: no significant effect on the growth or death
Cell viability (growth or death) under normoxia [4]: No change in cell viability; also recorded: no significant effect on the growth or death
Cytotoxicity / cell-membrane damage by LDH release [5]: no significant cytotoxicity or cell-membrane damaging effects
Degradation by trypsin after five minute treatment [6]: completely degraded
